Some test systems named below: SK-OV-3; NCI-H522; SNB-19; MDA-MB-231; NCI-H23; IGROV-1; TK-10; OVCAR-4; SK-MEL-28; OVCAR-5; T47D; MOLT-4; BT-549; CCRF-CEM; NCI-H226; MDA-MB-435; ACHN; M14; UACC-257; HCT-15.
Holding throughout (assay): growth of human tumour cells (NCI), 48 h

Six molecules from ChEMBL document CHEMBL1201862, “PubChem BioAssay data set” (2004) can be followed below.

The structures appear in SMILES notation.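 Growth conditions: 96-well plates. Treatment: test compound, 48 hours, 5 concentrations. Analysis: linear interpolation between bracketing concentrations; unreached endpoints set to highest concentration. Abbreviation: GI50, concentration required for 50% inhibition of growth.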 Calls of active or inactive are those of the source. Cut-off read from the data, not from the text of the source: active = GI50 up to about 1.1 µM and inactive = higher.

On to `CSc1cc(N)ccc1/N=N/c1ccc(S(N)(=O)=O)cc1`, for which the GI50 was 35.8 µM (inactive) with SK-OV-3; 17.7 µM (inactive) in the test on NCI-H522; 55.3 µM (inactive) with SNB-19; 16.1 µM (inactive) in the test with MDA-MB-231; 33.4 µM (inactive) with NCI-H23; 23.1 µM (inactive) in the test on IGROV-1. For the same molecule, the GI50 in the test with TK-10 was 29.4 µM (inactive); in the test on OVCAR-4, 27.5 µM (inactive); with SK-MEL-28, 25.5 µM (inactive); in the test on OVCAR-5 it was 45 µM (inactive); in the test on T47D, 18.8 µM (inactive); with MOLT-4 it was 31.3 µM (inactive). For the same molecule, the GI50 in the test on BT-549 was 6.4 µM (inactive); in the test with CCRF-CEM, 27.3 µM (inactive); in the test on NCI-H226, 13.2 µM (inactive); with MDA-MB-435 it was 27.4 µM (inactive); with ACHN, 27.2 µM (inactive); with M14, 38.1 µM (inactive). The GI50 in the test with UACC-257 is 80 µM (inactive); in the test on HCT-15, 21.8 µM.
On to `Cc1ccc(C(=O)c2[nH]c(Nc3cc(C)ccn3)c(C(=S)Nc3ccccc3)c2N)cc1`, for which the GI50 in the test with SK-OV-3, in the test on NCI-H522, in the test with SNB-19, in the test on MDA-MB-231, with NCI-H23 and in the test on IGROV-1 was > 100 µM (inactive) each time. In addition, the GI50 in the test on TK-10, in the test with OVCAR-4, in the test on SK-MEL-28, in the test with OVCAR-5, in the test with T47D and in the test on MOLT-4 was > 100 µM (inactive) throughout. Further, the GI50 in the test on BT-549, with CCRF-CEM, in the test with NCI-H226, in the test with MDA-MB-435, in the test with ACHN and in the test on M14 was > 100 µM (inactive) each time. Moreover, the values for the GI50 in the test with UACC-257 and in the test on HCT-15 were > 100 µM (inactive) and greater than 100 µM, respectively.
Regarding `CC1(C)C2CCC1(CS(=O)(=O)Nc1ccccc1)C(=O)C2` (stereo not given), the GI50 in the test with SK-OV-3, in the test with NCI-H522, with SNB-19, in the test with MDA-MB-231, in the test on NCI-H23 and with IGROV-1 was > 100 µM (inactive) each time. The GI50 in the test on TK-10, in the test with OVCAR-4, in the test with SK-MEL-28, in the test on OVCAR-5, in the test with T47D and in the test with MOLT-4 was > 100 µM (inactive) throughout. Moreover, the GI50 in the test with BT-549 is > 100 µM (inactive); in the test with CCRF-CEM, 11.7 µM (inactive); in the test on NCI-H226, > 100 µM (inactive); with MDA-MB-435 it was > 100 µM (inactive); in the test on ACHN, > 100 µM (inactive); with M14, > 100 µM (inactive). The GI50 was > 100 µM (inactive) in the test with UACC-257 and greater than 100 µM in the test on HCT-15.
As to `COc1ccc(C2(CC(C)O)SCCCS2)cc1` (stereo not given), the GI50 in the test on SK-OV-3, in the test with NCI-H522, in the test with SNB-19, with MDA-MB-231, in the test on NCI-H23 and in the test with IGROV-1 was > 100 µM (inactive) each time. For the same molecule, the GI50 in the test on TK-10 was > 100 µM (inactive); in the test with OVCAR-4, > 100 µM (inactive); with SK-MEL-28 it was > 100 µM (inactive); with OVCAR-5 it was > 100 µM (inactive); with T47D it was > 100 µM (inactive); with MOLT-4, 42 µM (inactive). Also, the GI50 with BT-549 was > 100 µM (inactive); with CCRF-CEM, 63.1 µM (inactive); in the test on NCI-H226, > 100 µM (inactive); in the test with MDA-MB-435 it was > 100 µM (inactive); in the test on ACHN, > 100 µM (inactive); in the test with M14, > 100 µM (inactive). In addition, the values for the GI50 in the test with UACC-257 and with HCT-15 were > 100 µM (inactive) and greater than 100 µM, respectively.
As to `O=S(=O)(O)CCSSCCS(=O)(=O)O`, the GI50 with SK-OV-3, with NCI-H522, in the test with SNB-19, in the test with MDA-MB-231, in the test on NCI-H23 and in the test on IGROV-1 was > 1000 µM (inactive) in each case. Also, the GI50 with TK-10, in the test on OVCAR-4, with SK-MEL-28, with OVCAR-5, in the test on T47D and in the test with MOLT-4 was > 1000 µM (inactive) in each case. The GI50 with BT-549, in the test on CCRF-CEM, in the test with NCI-H226, in the test on MDA-MB-435, in the test on ACHN and in the test on M14 was > 1000 µM (inactive) in each case. The GI50 is > 1000 µM (inactive) with UACC-257 and greater than 1000 µM in the test on HCT-15.
`O=C1Nc2ccccc2/C1=C1/Nc2ccccc2/C1=N\OCCNCC(O)C(O)C(O)C(O)CO` (stereo not given): the GI50 was 9.66 µM (inactive) with SK-OV-3; 13.4 µM (inactive) in the test on NCI-H522; 13.6 µM (inactive) in the test on SNB-19; 11.2 µM (inactive) in the test on MDA-MB-231; 10.4 µM (inactive) in the test with NCI-H23; 6.62 µM (inactive) in the test on IGROV-1. The GI50 in the test on TK-10 is 35.8 µM (inactive); in the test on OVCAR-4, 31.5 µM (inactive); in the test with SK-MEL-28, 9.73 µM (inactive); in the test with OVCAR-5, > 50 µM (inactive); with T47D, 6.7 µM (inactive); with MOLT-4 it was 12.9 µM (inactive). The GI50 in the test with BT-549 is 13.9 µM (inactive); in the test on CCRF-CEM it was 10.5 µM (inactive); with NCI-H226 it was 13.8 µM (inactive); in the test with MDA-MB-435, 9.86 µM (inactive); in the test with ACHN, > 50 µM (inactive); in the test on M14, 20.9 µM (inactive). The GI50 is 13.5 µM (inactive) in the test with UACC-257 and greater than 50 µM in the test with HCT-15.
